{"source": "ChEMBL document CHEMBL4699530", "about": "“Isolation, Structural Elucidation, and Anti-HIV Activity of Daphnane Diterpenoids from Daphne odora” (J Nat Prod, 2020)", "key": {"[1]": {"tested_on": "Human immunodeficiency virus", "assay": "Antiviral activity against HIV NL4-3 infected in human MT4 cells assessed as suppression of viral replication by measuring reduction in p24 level measured after 4 days by ELISA method", "type": "functional, organism-based", "conditions": "Human immunodeficiency virus 1, NL4-3, MT4, 96 h"}, "MT4": {"tested_on": "MT4", "assay": "Cytotoxicity against human MT4 cells assessed as reduction in cell viability incubated for 4 days by CellTiter-Glo assay", "type": "cell-based", "conditions": "MT4, 96 h"}}, "data": [{"smiles": "C=C(C)[C@@]12O[C@@]3(/C=C/C=C/CCCCC)O[C@@H]1[C@@H]1[C@@H]4O[C@]4(CO)[C@@H](O)[C@]4(O)C(=O)C(C)=C[C@H]4[C@@]1(O3)[C@H](C)[C@H]2OC(=O)/C=C/c1ccccc1", "values": [{"measurement": "EC50", "setting": "[1]", "result": 2.2, "unit": "nM"}, {"measurement": "IC50", "setting": "MT4", "result": "> 34", "unit": "nM"}]}, {"smiles": "C=C(C)[C@@]1(O)[C@H](OC(=O)/C=C/C=C/CCCCC)[C@@H]2[C@@H]3O[C@]3(CO)[C@@H](O)[C@]3(O)C(=O)C(C)=C[C@H]3[C@@]2(O)[C@H](C)[C@H]1OC(=O)/C=C/c1ccccc1", "values": [{"measurement": "EC50", "setting": "[1]", "result": "> 34", "unit": "nM"}, {"measurement": "IC50", "setting": "MT4", "result": "> 34", "unit": "nM"}]}, {"smiles": "C=C(C)[C@@]12O[C@@]3(/C=C/C=C/C=C/CCC)O[C@@H]1[C@@H]1[C@@H]4O[C@]4(CO)[C@@H](O)[C@]4(O)C(=O)C(C)=C[C@H]4[C@@]1(O3)[C@H](C)[C@H]2OC(=O)c1ccccc1", "values": [{"measurement": "EC50", "setting": "[1]", "result": 1.9, "unit": "nM"}, {"measurement": "IC50", "setting": "MT4", "result": "> 34", "unit": "nM"}]}, {"smiles": "C=C(C)[C@@]12O[C@@]3(/C=C/C=C/CCCCC)O[C@@H]1[C@@H]1[C@@H]4O[C@]4(CO)[C@@H](O)[C@]4(O)C(=O)C(C)=C[C@H]4[C@@]1(O3)[C@H](C)[C@H]2OC(=O)/C=C/c1ccc(O)c(OC)c1", "values": [{"measurement": "EC50", "setting": "[1]", "result": 1.5, "unit": "nM"}, {"measurement": "IC50", "setting": "MT4", "result": "> 34", "unit": "nM"}]}, {"smiles": "C=C(C)[C@]1(O)C[C@@H](C)[C@@]2(O)[C@@H]([C@H]3O[C@@]4([C@H](O)[C@]3(O)COC(=O)c3ccccc3)[C@@H](OC(=O)/C=C/C=C/C=C/CCC)[C@@H](C)C[C@@H]24)[C@H]1O", "values": [{"measurement": "EC50", "setting": "[1]", "result": "> 34", "unit": "nM"}, {"measurement": "IC50", "setting": "MT4", "result": "> 34", "unit": "nM"}]}, {"smiles": "C=C(C)[C@@]12O[C@@]3(/C=C/C=C/C=C/CCC)O[C@@H]1[C@@H]1[C@@H]4O[C@]4(CO)[C@@H](O)[C@]4(O)C(=O)C(C)=C[C@H]4[C@@]1(O3)[C@H](C)[C@H]2OC(=O)/C=C/c1ccccc1", "values": [{"measurement": "EC50", "setting": "[1]", "result": 3.7, "unit": "nM"}, {"measurement": "IC50", "setting": "MT4", "result": "> 34", "unit": "nM"}]}, {"smiles": "C=C(C)[C@@]12O[C@@]3(/C=C/C=C/C=C/CCC)O[C@@H]1[C@@H]1[C@@H]4O[C@]4(CO)[C@@H](O)[C@]4(O)C(=O)C(C)=C[C@H]4[C@@]1(O3)[C@H](C)[C@H]2OC(=O)/C=C/c1ccc(O)c(OC)c1", "values": [{"measurement": "EC50", "setting": "[1]", "result": 4.5, "unit": "nM"}, {"measurement": "IC50", "setting": "MT4", "result": "> 34", "unit": "nM"}]}, {"smiles": "C=C(C)[C@@]1(O)[C@H](OC(=O)/C=C/C=C/C=C/CCC)[C@@H]2[C@@H]3O[C@]3(CO)[C@@H](O)[C@]3(O)C(=O)C(C)=C[C@H]3[C@@]2(O)[C@H](C)[C@H]1OC(=O)/C=C/c1ccc(O)c(OC)c1", "values": [{"measurement": "EC50", "setting": "[1]", "result": "> 34", "unit": "nM"}, {"measurement": "IC50", "setting": "MT4", "result": "> 34", "unit": "nM"}]}, {"smiles": "C=C(C)[C@@]12O[C@@]3(c4ccccc4)O[C@@H]1[C@@H]1[C@@H]4O[C@]4(CO)[C@@H](O)[C@]4(O)C(=O)C(C)=C[C@H]4[C@@]1(O3)[C@H](C)[C@H]2OC(=O)/C=C/C=C/C=C/CCC", "values": [{"measurement": "EC50", "setting": "[1]", "result": 2.3, "unit": "nM"}, {"measurement": "IC50", "setting": "MT4", "result": "> 34", "unit": "nM"}]}, {"smiles": "C=C(C)[C@@]12O[C@@]3(/C=C/C=C/C=C/CCC)O[C@@H]1[C@@H]1[C@@H]4O[C@]4(CO)[C@@H](O)[C@]4(O)C(=O)C(C)=C[C@H]4[C@@]1(O3)[C@H](C)[C@H]2OC(=O)/C=C/c1ccc(O)cc1", "values": [{"measurement": "EC50", "setting": "[1]", "result": 1.6, "unit": "nM"}, {"measurement": "IC50", "setting": "MT4", "result": "> 34", "unit": "nM"}]}, {"smiles": "C=C(C)[C@@]12O[C@@]3(/C=C/C=C/CCCCC)O[C@@H]1[C@@H]1[C@@H]4O[C@]4(CO)[C@@H](O)[C@]4(O)C(=O)C(C)=C[C@H]4[C@@]1(O3)[C@H](C)[C@H]2OC(=O)/C=C/c1ccc(O)cc1", "values": [{"measurement": "EC50", "setting": "[1]", "result": 7.7, "unit": "nM"}, {"measurement": "IC50", "setting": "MT4", "result": "> 34", "unit": "nM"}]}, {"smiles": "C=C(C)[C@@]12O[C@@]3(/C=C/C=C/CCCCC)O[C@@H]1[C@@H]1[C@@H]4O[C@]4(CO)[C@@H](O)[C@]4(O)C(=O)C(C)=C[C@H]4[C@@]1(O3)[C@H](C)[C@H]2OC(=O)c1ccccc1", "note": "[GNIDILATIDIN]", "values": [{"measurement": "EC50", "setting": "[1]", "result": 1.9, "unit": "nM"}, {"measurement": "IC50", "setting": "MT4", "result": "> 34", "unit": "nM"}]}]}
